In brackets after ≈: the same amount, converted by molar mass.
Experiments:
[1] = system: Salmonella typhi TD; assay type: cell-based; details: Salmonella enterica, 24 h
[2] = system: M.R. Staphylococcus aureus 419; details: 24 h
[3] = system: M.R. Staphylococcus aureus 421; details: 24 h
[4] = system: Escherichia coli H-12; details: H12, 24 h
[5] = system: M.R. Staphylococcus aureus 420; details: 24 h
[6] = system: Pseudomonas aeruginosa IFO 13736; details: IFO13736, 24 h
[7] = system: Escherichia coli 0-1; details: Escherichia coli, 01, 24 h
[8] = system: Shigella flexneri 2b; assay type: cell-based; details: 24 h
[9] = system: Micrococcus lysodeikticus IFO 3333; details: Micrococcus luteus, IFO3333, 24 h
[10] = system: M.R. Staphylococcus aureus 395; details: 24 h
[11] = system: Staphylococcus epidermidis ATCC 12228; details: ATCC12228, 24 h
[12] = system: Klebsiella pneumonias IFO 13541; assay type: cell-based; details: IFO13541, 24 h, Gram-negative, Mueller Hinton Medium, 10^6 /ml, 37° C.
[13] = system: Proteus rettgeri; details: Providencia rettgeri, 24 h
[14] = system: Pseudomonas aeruginosa P2; details: P2, 24 h
[15] = system: M.R. Staphylococcus aureus 415; details: 24 h
[16] = system: Bacillus subtilis ATCC 6633; details: ATCC6633, 24 h
[17] = system: Pseudomonas aeruginosa IFO 12582; details: IFO12582, 24 h
[18] = system: Staphylococcus aureus FDA 209P; details: FDA209P, 24 h
[19] = system: Staphylococcus aureus Smith; details: 24 h
[20] = system: Staphylococcus aureus Terajima; details: 24 h
[21] = system: Proteus vulgaris OXK; details: 24 h
[22] = system: Strepto occus faecalis IFO 12964; details: 24 h
[23] = system: Sarcina lutea ATCC 9341; details: Micrococcus luteus, ATCC9341, 24 h
[24] = system: Serratia marcescens NHL; details: 24 h
[25] = system: Klebsiella pneumonias ATCC 10031; details: ATCC10031, 24 h

Structure (SMILES): CC1COc2c(N3CCN(C)CC3)c(F)cc3c(=O)c(C(=O)O)cn1c23 (stereo not drawn) [Ofloxacin, reference compound]
- MIC [1]: 0.024 µg/mL (≈ 0.0664 µM)
- MIC [2]: 0.39 µg/mL (≈ 1.08 µM)
- MIC [3]: 0.39 µg/mL (≈ 1.08 µM)
- MIC [4]: 0.098 µg/mL (≈ 0.271 µM)
- MIC [5]: 0.39 µg/mL (≈ 1.08 µM)
- MIC [6]: 1.56 µg/mL (≈ 4.32 µM)
- MIC [7]: 0.098 µg/mL (≈ 0.271 µM)
- MIC [8]: 0.012 µg/mL (≈ 0.0332 µM)
- MIC [9]: 1.56 µg/mL (≈ 4.32 µM)
- MIC [10]: 0.39 µg/mL (≈ 1.08 µM)
- MIC [11]: 0.78 µg/mL (≈ 2.16 µM)
- MIC [12]: 0.024 µg/mL (≈ 0.0664 µM)
- MIC [13]: 0.098 µg/mL (≈ 0.271 µM)
- MIC [14]: 0.78 µg/mL (≈ 2.16 µM)
- MIC [15]: 0.39 µg/mL (≈ 1.08 µM)
- MIC [16]: 0.098 µg/mL (≈ 0.271 µM)
- MIC [17]: 3.12 µg/mL (≈ 8.63 µM)
- MIC [18]: 0.195 µg/mL (≈ 0.54 µM)
- MIC [19]: 0.39 µg/mL (≈ 1.08 µM)
- MIC [20]: 0.78 µg/mL (≈ 2.16 µM)
- MIC [21]: 0.049 µg/mL (≈ 0.136 µM)
- MIC [22]: 1.56 µg/mL (≈ 4.32 µM)
- MIC [23]: 3.12 µg/mL (≈ 8.63 µM)
- MIC [24]: 0.049 µg/mL (≈ 0.136 µM)
- MIC [25]: 0.024 µg/mL (≈ 0.0664 µM)

Structure (SMILES): N[C@@H]1CCCCN(c2c(F)cc3c(=O)c(C(=O)O)cn(C4CC4)c3c2Cl)C1 [Compound 15]
- MIC [1]: 0.049 µg/mL (≈ 0.124 µM)
- MIC [2]: 0.024 µg/mL (≈ 0.0609 µM)
- MIC [3]: 0.049 µg/mL (≈ 0.124 µM)
- MIC [4]: 0.098 µg/mL (≈ 0.249 µM)
- MIC [5]: 0.049 µg/mL (≈ 0.124 µM)
- MIC [6]: 1.56 µg/mL (≈ 3.96 µM)
- MIC [7]: 0.098 µg/mL (≈ 0.249 µM)
- MIC [8]: 0.006 µg/mL (≈ 0.0152 µM)
- MIC [9]: 0.195 µg/mL (≈ 0.495 µM)
- MIC [10]: 0.049 µg/mL (≈ 0.124 µM)
- MIC [11]: 0.049 µg/mL (≈ 0.124 µM)
- MIC [12]: 0.049 µg/mL (≈ 0.124 µM)
- MIC [13]: 0.195 µg/mL (≈ 0.495 µM)
- MIC [14]: 1.56 µg/mL (≈ 3.96 µM)
- MIC [15]: 0.024 µg/mL (≈ 0.0609 µM)
- MIC [16]: 0.024 µg/mL (≈ 0.0609 µM)
- MIC [17]: 0.78 µg/mL (≈ 1.98 µM)
- MIC [18]: 0.012 µg/mL (≈ 0.0305 µM)
- MIC [19]: 0.024 µg/mL (≈ 0.0609 µM)
- MIC [20]: 0.195 µg/mL (≈ 0.495 µM)
- MIC [21]: 0.049 µg/mL (≈ 0.124 µM)
- MIC [22]: 0.195 µg/mL (≈ 0.495 µM)
- MIC [23]: 0.098 µg/mL (≈ 0.249 µM)
- MIC [24]: 0.195 µg/mL (≈ 0.495 µM)
- MIC [25]: 0.012 µg/mL (≈ 0.0305 µM)

Structure (SMILES): O=C1CCN(c2c(F)cc3c(=O)c(C(=O)O)cn(C4CC4)c3c2Cl)CCN1 [Compound 2, 8-Chloro-1-cyclopropyl-6-fluoro-7-(2,3,4,5,6,7-hexahydro-1H-1,4-diazepin-5-one-1-yl)-4-oxoquinoline-3-carboxylic acid]
- MIC [1]: 0.098 µg/mL (≈ 0.249 µM)
- MIC [2]: 0.024 µg/mL (≈ 0.0609 µM)
- MIC [3]: 0.024 µg/mL (≈ 0.0609 µM)
- MIC [4]: 0.39 µg/mL (≈ 0.99 µM)
- MIC [5]: 0.024 µg/mL (≈ 0.0609 µM)
- MIC [6]: 6.25 µg/mL (≈ 15.9 µM)
- MIC [7]: 0.195 µg/mL (≈ 0.495 µM)
- MIC [8]: 0.003 µg/mL (≈ 0.00762 µM)
- MIC [9]: 0.049 µg/mL (≈ 0.124 µM)
- MIC [10]: 0.049 µg/mL (≈ 0.124 µM)
- MIC [11]: 0.049 µg/mL (≈ 0.124 µM)
- MIC [12]: 0.098 µg/mL (≈ 0.249 µM)
- MIC [13]: 0.78 µg/mL (≈ 1.98 µM)
- MIC [14]: 12.5 µg/mL (≈ 31.7 µM)
- MIC [15]: 0.024 µg/mL (≈ 0.0609 µM)
- MIC [16]: 0.024 µg/mL (≈ 0.0609 µM)
- MIC [17]: 6.25 µg/mL (≈ 15.9 µM)
- MIC [18]: 0.012 µg/mL (≈ 0.0305 µM)
- MIC [19]: 0.012 µg/mL (≈ 0.0305 µM)
- MIC [20]: 0.098 µg/mL (≈ 0.249 µM)
- MIC [21]: 0.024 µg/mL (≈ 0.0609 µM)
- MIC [22]: 0.195 µg/mL (≈ 0.495 µM)
- MIC [23]: 0.195 µg/mL (≈ 0.495 µM)
- MIC [24]: 0.78 µg/mL (≈ 1.98 µM)
- MIC [25]: 0.012 µg/mL (≈ 0.0305 µM)
